Data on 1 molecule can be found in publication PMC3948684, “Approaches to Improve the Oral Bioavailability and Effects of Novel Anticancer Drugs Berberine and Betulinic Acid” (PLoS ONE, 2014).

For one data set, the system named is A549 cells. The data set can be described thus: In vitro cytotoxicity, crystal violet staining. In kind it is cell-based. The conditions noted are these: Homo sapiens, BBR, 72 h exposure. As to the method: (§1) NSCLC cells A549 and H1650 were plated in 96 well plates at 10,000 cells/well density. After 24 h, cells were treated with various concentrations of BBR and BA. DMSO (0.1%) treated cells were considered as control cells. After 72 h treatment, cells were fixed in 0.25% gultaraldehyde and stained with 0.05% crystal violet staining. Percent of cell viability or cell kill was calculated by considering DMSO treated control cells as 100% viable (zero % cell kill).

A further data set relates to H1650 cells. The data set can be described thus: In vitro cytotoxicity, crystal violet staining. In kind it is cell-based. Conditions: Homo sapiens, NCI-H1650; BBR, 72 h exposure. As to the method:
as §1

Data set [1] can be described thus: In vitro drug release of BBR (USP type II paddle). In kind it is physicochemical. The conditions noted are these: after 5 h; PBS pH 5.8 with 1% volpo, 37°C. How it is done:
In vitro drug release study was conducted in PBS (pH 5.8) containing 1% volpo. Briefly, 50 mg of free drug or equivalent amount of SD form of BBR and BA were dispersed in 500 ml of release medium and the drug release profile was studied at pH 5.8. Release studies were performed according to the USP type II paddle method, at 37±0.5°C while stirring constantly at 50 rpm. Samples were withdrawn at different time points, centrifuged and drug content in the samples was analyzed by spectrometric method of analysis. The withdrawn samples were replaced by equal volumes of fresh medium maintained at the same temperature. Except replacing the 1% Volpo with 2.5% SLS, similar conditions were maintained for the in vitro drug release studies of BA in free drug and SD forms. The released BA concentrations were measured by established HPLC method.

The next data set concerns Bcl-2. The data set can be described thus: Western blot of orthotopic lung tumor lysates. Conditions: A549 tumors; densitometry. In kind it is in vivo, athymic Nu/nu mice. How it is done:
(§2) Western blot analysis was performed to study the expression of Bcl-2, cleaved caspase 3, survivin, cyclin D1, p53, MMP-9, HIF-1α. The detailed procedure was given as Data S1.
(§3) B) Western blot analysis: western blot analysis was performed to study the expression of Bcl-2, cleaved caspase 3, survivin, cyclin D1, p53, MMP-9, HIF-1α. The detailed procedure was given in supplementary data. Protein was extracted from tumor tissues collected from untreated control and drug treated animals using RIPA lysis buffer (50mM Tris-HCL, pH 8.0, with 150 mM sodium chloride, 1.0% Igepal CA-630 (NP-40), 0.5% sodium deoxychlorate, and 0.1% sodium dodecyl sulfate) with protease inhibitor and 500 mM phenylmethylsulfonyl fluoride. Protein concentration was measured using BCA Protein Assay Reagent Kit (PIERCE, Rockford, IL). Equal amounts of supernatant protein (50 μg) was denatured by boiling for 5 min in SDS sample buffer, separated by 10% SDS-PAGE, transferred to nitrocellulose membranes for immunoblotting. Membranes were blocked with 5% skim milk in Tris-buffered saline with Tween 20 [10mM Tris-HCL (pH 7.6), 150 mM Nacl, and 0.5% Tween 20] and probed with antibodies against Bcl-2 (1:1000), cleaved caspase 3 (1:500), survivin (1:1000), cyclin D1(1:1000), p53 (1:1000), MMP-9 (1:1000), HIF-1α (1:1000) and β-actin (1:1000). Horseradish peroxidase-conjugated secondary antibodies (Santa Cruz Biotechnology, Santa Cruz, CA) were used. Proteins were visualized using enhanced chemiluminescent solution (Pierce, Rockford, IL) and exposed to Kodak X-OMAT AR autoradiography film (Eastman Kodak, Rochester, NY).

The subject of a further data set is HIF-1α. The data set can be described thus: Western blot of orthotopic lung tumor lysates. The class given is in vivo, athymic Nu/nu mice. The conditions noted are these: A549 tumors. How it is done:
as §2, §3

The next data set has as its system cyclin D1. The data set can be described thus: Western blot of orthotopic lung tumor lysates. In kind it is in vivo, athymic Nu/nu mice. Conditions: A549 tumors; densitometry. As to the method:
as §2, §3

The test system of a further data set is p53. The data set can be described thus: Western blot of orthotopic lung tumor lysates. The class given is in vivo, athymic Nu/nu mice. Conditions: A549 tumors; densitometry. How it is done:
as §2, §3

The next data set relates to survivin. The data set can be described thus: Western blot of orthotopic lung tumor lysates. The conditions noted are these: A549 tumors; densitometry. The class given is in vivo, athymic Nu/nu mice. How it is done:
as §2, §3

Another data set relates to VEGF. The data set can be described thus: Quantification of VEGF by ELISA. The class given is in vivo, athymic Nu/nu mice. How it is done: VEGF levels were estimated in plasma, tumor tissue homogenates by ELISA method. Tumors were homogenized in RIPA lysis buffer (20 mM Tris-HCl pH 7.5, 150 mM NaCl, 1% Triton X-100) containing proteinase inhibitors (Complete Proteinase Inhibitor Cocktail Tablets, Roche, Indianapolis. IN). Tissue debris was pelleted and the resulting supernatant was used in subsequent analysis. Total protein concentration was determined with a BCA protein assay (Pierce, Rockford, IL). VEGF concentrations were determined according to the manufacturer's instructions. A minimum of 3 tumors per group were analyzed in duplicate.

Data set [2] can be described thus: Toxicity on chronic administration (body weights, H&E histopathology). Conditions: 100 mg/kg for 3 weeks. How it is done:
A549 cells were grown in F12K Medium containing 10% FBS and standard antibiotic mix at 5% CO2 and 37°C. For orthotopic lung tumor model, mice were anesthetized with Isoflurane and a 5 mm skin incision was made to the left chest, 5 mm below the scapula. Hamilton syringes (1 ml) with 28-gauge hypodermic needles were used to inject the cell inoculums through the sixth intercostal space into the left lung. The needle was quickly advanced to a depth of 3 mm and quickly removed after the injection of the A549 cells (2 million/mouse) suspended in 100 µL PBS (pH 7.4) into the lung parenchyma. For metastatic lung tumor models H1650 cells (2 million in 100 µL PBS) were intravenously administered to mice via tail vein. […] Wounds from the incisions were closed with surgical skin clips. […] Drug treatment was started 2 weeks after the tumor cell implantation. BBR free drug or SD formulation was given orally at the dose of 100 mg/kg daily for 3 weeks. […] Body weights were monitored throughout the study. Animal survival rates were recorded during the study. The lung weights and tumor volumes were used for assessment of therapeutic activity of the treatments. After sacrificing the animals lung weights and tumor nodules were recorded in metastatic tumor models.
Orthotopic lung tumors and mice small intestine segments (ileum) were processed for normal histopathological procedures and 5–10 µm sections were made. After deparaffinization and rehydration, sections were stained with Hematoxylin and Eosin for normal histological evaluation. Similarly, small intestine segments were processed and stained with H&E and visualized under normal microscope.

Details of data set [3]: method as in PMID 19283771. The conditions noted are these: oral administration of 100 mg/kg in rats ref 24; cited from earlier work.
On the set-up of data set [4]: method as in PMID 16956957, PMID 20634337. Conditions: oral ref 21, 22; cited from earlier work.
Data set [5] is described as follows: In vitro Caco-2 permeability study. Conditions: human, Caco-2, pH 5.8.
Description: Caco-2 cells (passage #29) were cultured at 37°C with culture medium replaced every 2 days in an atmosphere of 5% CO2 and 95% relative humidity. Cells were harvested upon reaching approximately 80-90% confluence with 0.25% trypsin–EDTA. Cells were grown on 1.12 cm^2 0.4 μm pore polycarbonate membrane inserts in 12 mm × 12 transwell permeable support plates (Corning, NY, USA). Caco-2 cells were seeded onto membranes at 50,000 cells/well. Individual wells received 1.5 mL of culture medium at the bottom and 0.5 mL of medium was added to the top of inserts which was changed on alternate days. Confluent monolayers were used for permeability studies at ~21 days post seeding. Transepithelial electrical resistance (TEER) of Caco-2 monolayers was measured prior to all experiments using the EVOM volt-ohm-meter (Millicell-ERS; Millipore, USA) to ensure monolayer integrity. The TEER (Ω·cm^2) values of the cell monolayers were determined by the resistance (Ω) × effective membrane area (cm^2). TEER values were measured across each cell monolayer prior to beginning the experimentation and at the last sample collection time point. Transport studies were initiated by removing culture medium from the apical (A) and basolateral (B) sides of the cell monolayer. […] The effective permeability (Peff) (cm/s) was determined using Eq. 1: […]

Take `COc1ccc2cc3[n+](cc2c1OC)CCc1cc2c(cc1-3)OCO2.[Cl-]` [BBR free drug, 5,6-dihydro-9,10-dimethoxy-benzo[g]-1,3-benzodioxolo[5,6-a]quinolizinium, chloride]: the IC50 in the data set with A549 cells was 6.45 ± 0.46 µM. Also, the IC50 in the data set on H1650 cells worked out at 8.39 ± 1.03 µM. The “percent of BBR released” value in [1] is “Approximately 100%”. Moreover, the “beta actin relative Bcl-2 expression reduced compared to untreated control” value in the data set with Bcl-2 came out at 2.79 fold. Also, the HIF-1α expression entry in the data set on HIF-1α is recorded as “significantly down regulated”. Also, in the data set with cyclin D1, the “cyclin D1 relative expression reduced compared to untreated control” value stood at 1.02 fold. Also, in the data set with p53, the “relative expression of p53 increased compared to untreated control” value stood at 2.51 fold. Moreover, the “survivin expression down regulated compared to control” value in the data set on survivin was found to be 2.03 fold. Moreover, the “VEGF levels in tumor lysates” value in the data set with VEGF (untreated control 284.71±42.84) was found to be 137.59±20.84 pg/mg protein. The “VEGF levels in serum” value in the data set on VEGF (untreated control 597.90±54.03) turned out to be 315.41 ± 44.06 pg/mL. In data set [2], the “H&E histopathology of small intestine (ileum)” value is reported as “No visible toxicity”, the “body weight changes during treatment” value is given as “no significant change” and the “signs of toxicity on chronic administration” value was “did not result in any toxicity”. In data set [3], the Cmax was 4 ng/mL. For the same molecule, in data set [4], the bioavailability entry was “less than 1%”. In data set [5], this molecule registered an apical-to-basolateral permeability (Papp A→B) at 120 min, 100 µM of roughly 0.29 ×10⁻⁶ cm/s.
